Reference: ChEMBL document CHEMBL2331157, “Structure-activity relationships of 6-(aminomethylphenoxy)-benzoxaborole derivatives as anti-inflammatory agent” (Bioorg Med Chem Lett, 2013)

Tests used:
PBMC [1] = assay: Antiinflammatory activity in human PBMCs assessed as inhibition of LPS-induced TNFalpha release at 100 uM incubated for 15 mins prior to LPS challenge measured after 24 hrs by HTRF assay relative to control; format: functional
PBMC [2] = assay: Antiinflammatory activity in human PBMCs assessed as inhibition of LPS-induced IL1-beta release at 100 uM incubated for 15 mins prior to LPS challenge measured after 24 hrs by HTRF assay relative to control; format: functional
PBMC [3] = assay: Antiinflammatory activity in human PBMCs assessed as inhibition of LPS-induced TNFalpha release incubated for 15 mins prior to LPS challenge measured after 24 hrs by HTRF assay; format: functional, cell-based
PBMC [4] = assay: Antiinflammatory activity in human PBMCs assessed as inhibition of LPS-induced IL1-beta release incubated for 15 mins prior to LPS challenge measured after 24 hrs by HTRF assay; format: functional, cell-based
PBMC [5] = assay: Antiinflammatory activity in human PBMCs assessed as inhibition of LPS-induced IL6 release at 10 uM incubated for 15 mins prior to LPS challenge measured after 24 hrs by HTRF assay relative to control; format: functional
PBMC [6] = assay: Antiinflammatory activity in human PBMCs assessed as inhibition of LPS-induced IL6 release at 100 uM incubated for 15 mins prior to LPS challenge measured after 24 hrs by HTRF assay relative to control; format: functional
PBMC [7] = assay: Antiinflammatory activity in human PBMCs assessed as inhibition of LPS-induced IL6 release incubated for 15 mins prior to LPS challenge measured after 24 hrs by HTRF assay; format: functional, cell-based
[8] = Cmax in CD1 mouse at 10 mg/kg, po; format: ADME, organism-based; parameters: dose 10 mg/kg, route oral; conditions: in vivo
[9] = AUC in CD1 mouse at 10 mg/kg, po; format: ADME, organism-based; parameters: dose 10 mg/kg, route oral; conditions: plasma
[10] = Tmax in CD1 mouse at 10 mg/kg, po; format: ADME, organism-based; parameters: dose 10 mg/kg, route oral; conditions: in vivo
[11] = Volume of distribution at steady state in CD1 mouse at 5 mg/kg, iv; format: ADME, organism-based; parameters: dose 5 mg/kg, route intravenous; conditions: in vivo, read-out: Vdss
[12] = Terminal half life in CD1 mouse at 5 mg/kg, iv; format: ADME, organism-based; parameters: dose 5 mg/kg, route intravenous; conditions: in vivo, read-out: beta t1/2 (converted)
[13] = Oral bioavailability in CD1 mouse at 10 mg/kg; format: ADME, organism-based; conditions: in vivo
[14] = AUC in CD1 mouse at 5 mg/kg, iv; format: ADME, organism-based; parameters: dose 5 mg/kg, route intravenous; conditions: plasma
[15] = Clearance in CD1 mouse at 5 mg/kg, iv; format: ADME, organism-based; parameters: dose 5 mg/kg, route intravenous; conditions: in vivo
[16] = Terminal half life in CD1 mouse at 10 mg/kg, po; format: ADME, organism-based; parameters: dose 10 mg/kg, route oral; conditions: in vivo, read-out: beta t1/2 (converted)

Cmax [8] [ng/mL]	AUC [9] [ng·h/mL]	Tmax [10] [h]	Vd [11] [L/kg]	half-life [12] [h]	bioavailability [13] [%]	AUC [14] [ng·h/mL]	clearance [15] [mL/min/kg]	half-life [16] [h]	Structure (SMILES)	inhibition at 100 µM (PBMC [1]) [%]	inhibition at 100 µM (PBMC [2]) [%]	IC50 (PBMC [3]) [µM]	IC50 (PBMC [4]) [µM]	inhibition at 10 µM (PBMC [5]) [%]	inhibition at 100 µM (PBMC [6]) [%]	IC50 (PBMC [7]) [µM]
–	–	–	–	–	–	–	–	–	C[C@@H]1C[C@H]2[C@@H]3CCC4=CC(=O)C=C[C@]4(C)[C@@]3(F)[C@@H](O)C[C@]2(C)[C@@]1(O)C(=O)CO [DEXAMETHASONE]	80	80	0.017	0.0095	43	–	–
–	–	–	–	–	–	–	–	–	CN1CCN(Cc2cccc(Oc3ccc4c(c3)B(O)OC4)c2)CC1	< 40	40	> 10	7.1	–	< 40	> 10
–	–	–	–	–	–	–	–	–	C[C@H]1C[C@H]2[C@@H]3CCC4=CC(=O)C=C[C@]4(C)[C@@]3(F)[C@@H](O)C[C@]2(C)[C@@]1(O)C(=O)CCl [CLOBETASOL]	80	80	0.007	4.4	–	80	4.2
142	533	0.25	2.14	0.65	15	1740	38	2.43	Cl.NCc1ccc(Oc2ccc3c(c2)B(O)OC3)c(F)c1	80	80	0.041	0.043	–	80	0.033
–	–	–	–	–	–	–	–	–	C[S+]([O-])c1ccc(-c2nc(-c3ccc(F)cc3)c(-c3ccncc3)[nH]2)cc1 (stereo not drawn) [SB-203580]	80	80	1	0.34	–	< 40	> 10
–	–	–	–	–	–	–	–	–	Nc1cccc(Oc2ccc3c(c2)B(O)OC3)c1	–	< 40	> 10	> 10	–	< 40	> 10
–	–	–	–	–	–	–	–	–	OB1OCc2ccc(Oc3cccc(CN4CCOCC4)c3)cc21	80	40	5.9	4.4	–	< 40	> 10
1450	2660	0.25	2.87	1.39	67	2260	36.8	2.82	Cl.NCc1ccc(Oc2ccc3c(c2)B(O)OC3)c(Cl)c1	–	–	–	–	–	–	–
